Test results as given in paper PMC7902330, “Pharmacokinetic study of traditional Japanese Kampo medicine shimotsuto used to treat gynecological diseases in rats” (Journal of Natural Medicines, 2021).
Read-outs that look alike come from different tables or passages of the source.

Assays:
[1] = Nontargeted LC–HRMS detection of ingredients in rat plasma after oral administration of each constituent crude drug; conditions: n = 2
Description: The rats were fasted for 16 h and then orally administered Angelicae Acutilobae Radix, Paeoniae Radix, Rehmanniae Radix, or Cnidii Rhizoma extract powder suspended in distilled water at a dosage of 1 g/10 mL/kg. […] The two sampling points (1 and 10 h) were set to extensively explore both fast- and slow-absorbing ingredients. The blood samples were centrifuged at 1700×g for 15 min at 4 °C to obtain plasma, and the plasma samples were stored at less than − 75 °C until LC–HRMS analysis.
Before LC–HRMS analysis, the plasma samples were deproteinized using methanol as follows: 100 µL of plasma sample was mixed with 700 µL of methanol and then vortexed for 2 min. After centrifugation at 7000×g for 5 min at 4 °C, the supernatant was collected and then dried using a centrifugal evaporator, dissolved the dried residue in 80 μL of the initial mobile phase of LC, and recentrifuged at 7000×g for 5 min at 4 °C. Finally, a 5 μL aliquot of the supernatant was injected into the LC–HRMS system and analyzed in both positive and negative ion modes.
We interfaced the Acquity Ultra-Performance Liquid Chromatography System (Waters) to a Xevo G2-XS quadrupole time-of-flight MS system (Waters) equipped with an electrospray ionization probe in sensitivity mode. All ions within m/z = 50–1000 were acquired by the MS^E method (data-independent acquisition). […] We created two acquisition functions with different collision energies: a low-energy function with 6 eV collision energy and a high-energy function with 15–40 eV collision energy. The mass spectrometer resolution was set at more than 20,000.

human TRPM8 = target: T1, human TRPM8 (Homo sapiens, UniProt Q7Z2W7); test: Ca2+ influx assay for TRP channel agonistic activity in T-REx-293 cells; assay type: cell-based; conditions: 10 µmol/L test ingredient, positive control 20 µmol/L icilin, read-out: % Activation compared to positive control, TRPM8
T1 construct: The full length of each of human transient receptor potential ankyrin 1 (TRPA1); expressed in transfected cells
T1 sequence (Q7Z2W7 whole entry): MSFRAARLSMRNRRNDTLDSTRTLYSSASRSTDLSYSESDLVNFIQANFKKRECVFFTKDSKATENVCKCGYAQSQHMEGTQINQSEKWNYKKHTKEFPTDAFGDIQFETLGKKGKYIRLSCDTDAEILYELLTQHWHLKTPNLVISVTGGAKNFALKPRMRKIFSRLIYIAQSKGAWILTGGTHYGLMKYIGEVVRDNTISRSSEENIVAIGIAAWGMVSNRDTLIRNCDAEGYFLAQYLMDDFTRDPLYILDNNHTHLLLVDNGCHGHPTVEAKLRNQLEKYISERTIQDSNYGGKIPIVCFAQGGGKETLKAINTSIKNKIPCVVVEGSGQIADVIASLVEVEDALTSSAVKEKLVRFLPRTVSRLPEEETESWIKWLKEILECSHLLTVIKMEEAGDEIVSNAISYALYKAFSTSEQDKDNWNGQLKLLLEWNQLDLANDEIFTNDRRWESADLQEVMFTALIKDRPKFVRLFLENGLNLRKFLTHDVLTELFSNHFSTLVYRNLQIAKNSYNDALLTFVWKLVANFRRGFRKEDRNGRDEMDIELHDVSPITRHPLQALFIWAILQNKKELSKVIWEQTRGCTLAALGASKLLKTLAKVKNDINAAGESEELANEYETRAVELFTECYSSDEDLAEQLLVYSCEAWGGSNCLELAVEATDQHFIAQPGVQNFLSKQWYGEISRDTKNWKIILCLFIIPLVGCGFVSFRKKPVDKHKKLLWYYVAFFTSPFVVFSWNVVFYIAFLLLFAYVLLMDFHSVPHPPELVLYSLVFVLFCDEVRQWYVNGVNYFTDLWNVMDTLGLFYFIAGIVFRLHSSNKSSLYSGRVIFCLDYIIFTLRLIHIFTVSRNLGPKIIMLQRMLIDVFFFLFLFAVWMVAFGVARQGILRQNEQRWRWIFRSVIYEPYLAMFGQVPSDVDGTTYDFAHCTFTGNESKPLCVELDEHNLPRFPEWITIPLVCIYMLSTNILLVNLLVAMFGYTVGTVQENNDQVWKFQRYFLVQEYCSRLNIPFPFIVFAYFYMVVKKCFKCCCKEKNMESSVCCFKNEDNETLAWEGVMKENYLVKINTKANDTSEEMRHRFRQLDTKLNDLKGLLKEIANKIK
From the text: (§1) The full length of each of human transient receptor potential ankyrin 1 (TRPA1), transient receptor potential cation channel subfamily V member 1 (TRPV1), transient receptor potential cation channel subfamily V member 4 (TRPV4), and transient receptor potential cation channel subfamily M member 8 (TRPM8) coding region was introduced into a pcDNA4/TO vector (Thermo Fisher Scientific, Waltham, MA, USA) and transfected into T-REx-293 cells (Thermo Fisher Scientific) to obtain stable cell lines expressing human TRPA1, TRPV1, TRPV4, and TRPM8. Next, the cells were cultured in Dulbecco’s Modified Eagle Medium containing 10% fetal bovine serum (FBS), 4 mM L-glutamine, and penicillin/streptomycin.
(§2) First, cells were suspended in culture medium with 1 µg/mL of tetracycline and seeded on a poly-D-lysine-coated 96-well plate at a density of 2.5 × 10^4 cells/well overnight. Next, the cells were used for Ca^2+ influx assay, as described previously with minor modifications, using a FLIPR Calcium 5 Assay Kit (Molecular Devices, San Jose, CA, USA). Briefly, cells were incubated in 80 µL of a Ca^2+-chelating dye dissolved in assay buffer at pH 7.4 (Hanks’ Balanced Salt Solution containing 20 mmol/L of 4-(2-hydroxyethyl)-1-piperazineethanesulfonic acid [HEPES]) for 30 min at room temperature. Next, the plates were assayed in a FlexStation 3 microplate reader (Molecular Devices). The fluorescence intensity was traced entirely for 80 s, and the fluorescence baseline was measured 20 s before application of 20 µL of the test compound (final concentration = 10 µmol/L). The response was expressed as percentage activation as follows:
(§3) Relative fluorescence units (RFU) (% activation) = ([RFUmax − RFUbaseline]/RFUbaseline) × 100
(§4) The activity of each test compound against TRPA1, TRPV1, TRPV4, and TRPM8 was represented as the relative enhancement of the Ca^2+ influx of each positive control as follows: 20 µmol/L of allyl isothiocyanate (TRPA1 agonist), 2 µmol/L of capsaicin (TRPV1 agonist), 4 µmol/L of GSK1016790A (TRPV4 agonist), and 20 µmol/L of icilin (TRPM8 agonist). The dose–response curve was fitted to the sigmoidal dose–response equation (Top: maximum response of each compound), and EC50 was calculated using GraphPad prism 7 software (GraphPad, San Diego, CA, USA).
(§5) Calcium ion influx into TRPA1-, TRPV1-, TRPV4-, or TRPM8-expressing T-REx-293 cells was measured to evaluate the agonistic effect of shimotsuto ingredients on TRP channels. The action of 10 µmol/L of each test ingredient was represented as the relative enhancement of the Ca^2+ influx of each positive control, indicated as follows: 20 µmol/L each of allyl isothiocyanate (TRPA1 agonist), 2 µmol/L capsaicin (TRPV1 agonist), 4 µmol/L GSK1016790A (TRPV4 agonist), and 20 µmol/L icilin (TRPM8 agonist). Dose–response tests of shimotsuto ingredients against TRPA1 were performed to calculate EC50.

human TRPV1 = target: T2, human TRPV1 (Homo sapiens, UniProt Q8NER1); test: as above; assay type: cell-based; conditions: 10 µmol/L test ingredient, positive control 2 µmol/L capsaicin, read-out: % Activation compared to positive control, TRPV1
T2 construct: The full length of each of human transient receptor potential ankyrin 1 (TRPA1), transient receptor potential cation channel subfamily V member 1 (TRPV1); expressed in transfected cells
T2 sequence (Q8NER1 whole entry): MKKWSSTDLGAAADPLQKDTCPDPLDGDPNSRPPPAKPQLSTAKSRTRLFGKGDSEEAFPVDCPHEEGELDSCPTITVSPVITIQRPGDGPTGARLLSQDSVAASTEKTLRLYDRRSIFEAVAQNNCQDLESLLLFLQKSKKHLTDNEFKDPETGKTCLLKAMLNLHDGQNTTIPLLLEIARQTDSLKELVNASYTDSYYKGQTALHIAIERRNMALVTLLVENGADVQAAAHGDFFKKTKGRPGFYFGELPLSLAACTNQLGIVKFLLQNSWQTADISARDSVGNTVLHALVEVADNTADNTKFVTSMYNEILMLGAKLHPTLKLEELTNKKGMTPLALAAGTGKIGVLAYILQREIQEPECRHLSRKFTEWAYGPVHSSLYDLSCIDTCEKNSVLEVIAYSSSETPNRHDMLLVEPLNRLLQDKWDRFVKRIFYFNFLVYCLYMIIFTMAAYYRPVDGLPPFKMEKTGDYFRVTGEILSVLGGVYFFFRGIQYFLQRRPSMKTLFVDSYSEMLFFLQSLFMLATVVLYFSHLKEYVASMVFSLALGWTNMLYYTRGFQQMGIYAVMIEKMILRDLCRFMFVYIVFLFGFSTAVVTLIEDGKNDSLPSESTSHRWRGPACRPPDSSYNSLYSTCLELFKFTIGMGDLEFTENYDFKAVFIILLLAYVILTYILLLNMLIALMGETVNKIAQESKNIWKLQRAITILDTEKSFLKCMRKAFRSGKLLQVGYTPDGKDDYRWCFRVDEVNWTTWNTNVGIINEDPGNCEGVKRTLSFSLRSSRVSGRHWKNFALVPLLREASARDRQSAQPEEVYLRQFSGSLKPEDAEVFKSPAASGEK
From the text: as §1, §2, §3, §4, §5

human TRPA1 = target: T3, human TRPA1 (Homo sapiens, UniProt O75762); test: as above; assay type: cell-based; conditions: for activation at 10 µM: T-REx-293, 10 µmol/L test ingredient, positive control 20 µmol/L allyl isothiocyanate, read-out: % Activation compared to positive control, TRPA1; for Activation of TRPA1 (in words): TRP stable expression cell lines
T3 construct: The full length of each of human transient receptor potential ankyrin 1 (TRPA1); expressed in transfected cells
T3 sequence (O75762 whole entry): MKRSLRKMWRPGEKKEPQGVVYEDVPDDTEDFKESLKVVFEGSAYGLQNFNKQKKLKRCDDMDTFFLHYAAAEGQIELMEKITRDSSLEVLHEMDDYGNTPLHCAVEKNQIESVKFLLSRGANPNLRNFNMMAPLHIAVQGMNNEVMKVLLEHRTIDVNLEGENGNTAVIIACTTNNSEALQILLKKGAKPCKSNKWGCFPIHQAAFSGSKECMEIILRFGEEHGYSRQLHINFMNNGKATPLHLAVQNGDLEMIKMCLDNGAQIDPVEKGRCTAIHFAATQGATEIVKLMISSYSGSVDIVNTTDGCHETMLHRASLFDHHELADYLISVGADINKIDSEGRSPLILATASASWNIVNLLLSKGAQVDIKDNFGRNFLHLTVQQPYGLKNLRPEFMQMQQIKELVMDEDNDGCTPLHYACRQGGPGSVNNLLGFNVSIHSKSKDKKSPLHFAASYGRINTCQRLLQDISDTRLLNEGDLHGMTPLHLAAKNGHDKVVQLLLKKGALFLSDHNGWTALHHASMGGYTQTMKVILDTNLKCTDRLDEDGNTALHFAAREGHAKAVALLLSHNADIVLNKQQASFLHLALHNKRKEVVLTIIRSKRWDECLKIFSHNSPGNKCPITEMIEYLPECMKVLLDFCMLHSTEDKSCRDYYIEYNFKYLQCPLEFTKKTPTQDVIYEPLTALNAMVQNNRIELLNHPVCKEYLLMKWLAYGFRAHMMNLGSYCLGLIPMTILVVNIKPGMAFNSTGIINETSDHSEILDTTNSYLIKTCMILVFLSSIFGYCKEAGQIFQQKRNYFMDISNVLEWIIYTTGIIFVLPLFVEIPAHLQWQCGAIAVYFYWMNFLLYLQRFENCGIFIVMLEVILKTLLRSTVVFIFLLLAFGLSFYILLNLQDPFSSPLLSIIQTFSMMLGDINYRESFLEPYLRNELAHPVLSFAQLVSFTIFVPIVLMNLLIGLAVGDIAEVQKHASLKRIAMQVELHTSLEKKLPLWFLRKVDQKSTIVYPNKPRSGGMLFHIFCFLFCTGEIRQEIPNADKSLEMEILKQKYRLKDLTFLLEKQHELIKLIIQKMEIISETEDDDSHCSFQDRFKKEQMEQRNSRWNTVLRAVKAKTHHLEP
From the text: as §1, §2, §3, §4, §5

human TRPV4 = target: T4, human TRPV4 (Homo sapiens, UniProt Q9HBA0); test: as above; assay type: cell-based; conditions: 10 µmol/L test ingredient, positive control 4 µmol/L GSK1016790A, read-out: % Activation compared to positive control, TRPV4
T4 construct: The full length of each of human transient receptor potential ankyrin 1 (TRPA1); expressed in transfected cells
T4 sequence (Q9HBA0 whole entry): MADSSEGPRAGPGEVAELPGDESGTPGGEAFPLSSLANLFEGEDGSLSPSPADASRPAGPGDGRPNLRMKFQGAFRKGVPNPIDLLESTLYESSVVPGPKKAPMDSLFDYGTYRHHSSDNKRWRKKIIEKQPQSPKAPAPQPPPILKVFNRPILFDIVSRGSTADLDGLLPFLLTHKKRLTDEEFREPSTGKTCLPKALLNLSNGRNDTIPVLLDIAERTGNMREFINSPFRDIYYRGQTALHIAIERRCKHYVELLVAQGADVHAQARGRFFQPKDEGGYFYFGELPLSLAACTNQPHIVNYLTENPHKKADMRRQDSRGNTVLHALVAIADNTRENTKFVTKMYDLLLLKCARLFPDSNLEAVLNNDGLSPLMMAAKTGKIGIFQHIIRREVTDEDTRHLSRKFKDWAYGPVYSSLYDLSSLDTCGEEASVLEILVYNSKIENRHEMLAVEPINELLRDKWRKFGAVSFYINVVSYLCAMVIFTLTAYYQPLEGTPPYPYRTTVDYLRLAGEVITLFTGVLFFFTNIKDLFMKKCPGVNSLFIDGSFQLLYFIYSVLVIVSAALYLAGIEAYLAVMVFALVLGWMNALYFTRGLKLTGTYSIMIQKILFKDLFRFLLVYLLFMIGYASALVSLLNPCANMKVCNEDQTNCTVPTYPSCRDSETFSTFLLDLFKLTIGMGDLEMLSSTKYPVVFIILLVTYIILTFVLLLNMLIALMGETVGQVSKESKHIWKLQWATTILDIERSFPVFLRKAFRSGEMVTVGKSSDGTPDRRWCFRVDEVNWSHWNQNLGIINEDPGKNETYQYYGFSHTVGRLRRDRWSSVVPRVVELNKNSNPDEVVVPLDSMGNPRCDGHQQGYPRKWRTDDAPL
From the text: as §1, §2, §3, §4, §5

[2] = Pharmacokinetics of ingredients in rat plasma after oral administration of shimotsuto (targeted LC–MS/MS); assay type: in vivo; conditions: in vivo
From the text: The plasma levels of nine ingredients were quantified using quantitative (targeted) analysis. Among them, seven ingredients (catalpol, paeoniflorin, albiflorin, senkyunolide A, butylphthalide, ferulic acid, and ligustilide) are candidate active ingredients in shimotsuto (Table 1). Two ingredients (bergapten and 8-debenzoylpaeoniflorin) are shimotsuto ingredients which were detected and identified in shimotsuto-treated rat plasma using nontargeted LC–HRMS analysis. The nine ingredients were quantified by collecting plasma samples at 0–24 h after shimotsuto administration, pretreating with the following procedures, and then analyzing by targeted LC–MS/MS using selected reaction-monitoring mode. The LC–MS/MS system was composed of a triple quadruple MS (TripleQuad6500; SCIEX, Framingham, MA, USA) and an Agilent 1290 Infinity LC system (Agilent Technologies, Santa Clara, CA, USA). For highly sensitive and selective quantitative (targeted) analysis of each compound, we preliminarily examined optimal pretreatment and analytical LC–MS/MS methods (e.g., MS parameters and LC conditions).
For quantification of catalpol, paeoniflorin, albiflorin, ferulic acid, and senkyunolide A in plasma, 100 µL of plasma sample was mixed with 20 µL of methanol (or working solution) and 20 µL of internal standard (niflumic acid or swertiamarin) and pretreated by deproteinization using 500 µL of acetonitrile. […] Finally, the dried residue was dissolved in 60 µL of the specific HPLC mobile phase used for analysis and then a 10 μL aliquot was injected into the LC–MS/MS system.
For quantification of ligustilide and butylphthalide in plasma, 200 µL of plasma sample was mixed with 40 µL of methanol (or working solution) and 40 µL of internal standard (imperatorin) and centrifuged at 15000×g for 10 min at 4 °C, the whole volume of supernatant was collected and subsequently pretreated by solid-phase extraction using Oasis HLB Extraction Cartridge (Waters, Milford, MA, USA). The acetonitrile elutes were collected and then dried under a steam of nitrogen gas. Finally, the dried residue was dissolved in 70 µL of the specific HPLC mobile phase and injected 20 µL into the LC–MS/MS system.
For quantification of bergapten in plasma, 100 µL of plasma sample was mixed with 20 µL of methanol (or working solution) and 20 µL of internal standard (niflumic acid) and pretreated by solid-phase extraction using an Oasis HLB 96-well µElution plate. Next, the mixied elutes of acetonitrile and isopropyl alcohol (1:1, v/v) were collected and then dried under a steam of nitrogen gas. Finally, the dried residue was dissolved in 60 µL of the specific HPLC mobile phase and injected 10 µL into the LC–MS/MS system.
For quantification of 8-debenzoylpaeoniflorin in plasma, 100 µL of plasma sample was mixed with 20 µL of methanol (or working solution) and 20 µL of internal standard (niflumic acid) and pretreated by liquid–liquid extraction using 500 µL of ethyl acetate. […] The dried residue was dissolved in 60 µL of the specific HPLC mobile phase and injected 10 µL into the LC–MS/MS system.
In addition, pharmacokinetic parameters of the shimotsuto ingredients detected in the plasma, such as the maximum concentration (Cmax) and area under the plasma level–time curve (AUC0−last), were calculated by noncompartmental moment analysis using Phoenix WinNonlin software (Certara L.P., St. Louis, MO, USA).

[3] = cited from earlier work
[4] = oral Angelicae Acutilobae Radix 1 g/kg

SMILES	activation at 10 µM (human TRPM8) [%]	activation at 10 µM (human TRPV1) [%]	activation at 10 µM (human TRPA1) [%]	Activation of TRPA1 (in words) (human TRPA1)	activation at 10 µM (human TRPV4) [%]	AUC(0-t) ([2]; rat, po, 1 g/kg) [ng·h/mL]	Cmax ([2]; rat, po, 1 g/kg) [ng/mL]	Tmax ([2]; rat, po, 1 g/kg) [min]	Plasma collected 1 h postadministration (detection) ([1]; oral Cnidii Rhizoma 1 g/kg)	Plasma collected 10 h postadministration (detection) ([1]; oral Cnidii Rhizoma 1 g/kg)	further results
CCCC=C1OC(=O)c2ccccc21 [3-Butylidenephthalide]									++ (The number of + signs represent the sample number in which the ingredient was detected in the plasma after administration of each constituent crude drug of shimotsuto (n = 2 per sampling time per crude drug))	Not detected	
COc1c2ccoc2cc2oc(=O)ccc12 [Bergapten]	0	0	3		0						Plasma collected 1 h postadministration (detection) [1, 4]: + (The number of + signs represent the sample number in which the ingredient was detected in the plasma after administration of each constituent crude drug of shimotsuto (n = 2 per sampling time per crude drug)); Plasma collected 10 h postadministration (detection) [1, 4]: Not detected; AUC(0-t) ([2]; rat plasma, oral shimotsuto 1 g/kg, from mean concentration (n = 3) per time point, read-out: AUC0−last): 0.0105 ng·h/mL; Cmax ([2]; rat plasma, oral shimotsuto 1 g/kg, from mean concentration (n = 3) per time point, read-out: Cmax): 0.0837 ng/mL; Tmax ([2]; rat plasma, oral shimotsuto 1 g/kg, from mean concentration (n = 3) per time point, read-out: tmax): 15 min
O.Oc1cc(O)c2c(c1)O[C@H](c1ccc(O)c(O)c1)[C@@H](O)C2 [Catechin]											Plasma collected 1 h postadministration (detection) ([1]; oral Paeoniae Radix 1 g/kg): ++ (The number of + signs represent the sample number in which the ingredient was detected in the plasma after administration of each constituent crude drug of shimotsuto (n = 2 per sampling time per crude drug)); Plasma collected 10 h postadministration (detection) ([1]; oral Paeoniae Radix 1 g/kg): Not detected
COc1cc(/C=C/COC(=O)/C=C/c2ccc(O)c(OC)c2)ccc1O [Coniferyl ferulate]									++ (The number of + signs represent the sample number in which the ingredient was detected in the plasma after administration of each constituent crude drug of shimotsuto (n = 2 per sampling time per crude drug))	+ (The number of + signs represent the sample number in which the ingredient was detected in the plasma after administration of each constituent crude drug of shimotsuto (n = 2 per sampling time per crude drug))	
COc1cc(O)c2c(=O)cc(C)oc2c1 [Eugenin]									++ (The number of + signs represent the sample number in which the ingredient was detected in the plasma after administration of each constituent crude drug of shimotsuto (n = 2 per sampling time per crude drug))	Not detected	
CCCC[C@@H]1OC(=O)C2=C1CCC=C2 [Senkyunolide A]	-1	1	86	potently activated	0	8.04	28.9	15			EC50 (human TRPA1): 1000 nM; Pharmacological action related to improvement of blood and the circulatory system ([3]; ref 8): Vasorelaxation; Pharmacological action related to improvement of blood and the circulatory system ([3]; ref 13): vasorelaxation and increased blood flow effects

Continued, in another order:

activation at 10 µM (human TRPM8) [%]	activation at 10 µM (human TRPV1) [%]	activation at 10 µM (human TRPA1) [%]	Activation of TRPA1 (in words) (human TRPA1)	activation at 10 µM (human TRPV4) [%]	AUC(0-t) ([2]; rat, po, 1 g/kg) [ng·h/mL]	Cmax ([2]; rat, po, 1 g/kg) [ng/mL]	Tmax ([2]; rat, po, 1 g/kg) [min]	SMILES	Plasma collected 1 h postadministration (detection) ([1]; oral Cnidii Rhizoma 1 g/kg)	Plasma collected 10 h postadministration (detection) ([1]; oral Cnidii Rhizoma 1 g/kg)	further results
2	1	30	slightly activated	1	811	466	60	CC12CC3(O)OC(O1)C1(CO)C3CC21OC1OC(CO)C(O)C(O)C1O (stereo not shown) [8-Debenzoylpaeoniflorin]			Plasma collected 1 h postadministration (detection) ([1]; oral Paeoniae Radix 1 g/kg): ++ (The number of + signs represent the sample number in which the ingredient was detected in the plasma after administration of each constituent crude drug of shimotsuto (n = 2 per sampling time per crude drug)); Plasma collected 10 h postadministration (detection) ([1]; oral Paeoniae Radix 1 g/kg): + (The number of + signs represent the sample number in which the ingredient was detected in the plasma after administration of each constituent crude drug of shimotsuto (n = 2 per sampling time per crude drug)); Cmax compared to paeoniflorin ([2]; rat): approximately tenfold
-1	-1	73	potently activated	0	4.12	13.7	30	CCCCC1OC(=O)c2ccccc21 (stereo not shown) [Butylphthalide]			EC50 (human TRPA1; dose–response test, Ca2+ influx, read-out: EC50 against TRPA1): 3200 nM; Pharmacological action related to improvement of blood and the circulatory system ([3]; ref 9): Vasodilation; Pharmacological action related to improvement of blood and the circulatory system ([3]; ref 13): vasorelaxation and increased blood flow effects
5	0	3		0	75	12.4	15	COc1cc(/C=C/C(=O)O)ccc1O [Ferulic acid]			Pharmacological action related to improvement of blood and the circulatory system ([3]; ref 14): Vasodilation effect [14]
